Assay results reported in patent US10954255B2, “Phospholipid analogues” (Karl-Franzens-Universitaet Graz, priority 2018, dated 2021).
“Also recorded” adds a separate entry of the source.

Assays:
LPS-induced chemokine KC = assay: Induction of chemokine KC in plasma of mice injected with LPS; type: in vivo; settings: phospholipid 200 μg/mouse i.p. with LPS 20 μg/mouse, blood after 2 and 4 hrs, FIG. 2
Procedure: Experiments were performed according to Austrian animal rights law using female C57BL/6J mice (Jackson Laboratories, Germany) of 20 g body weight. Mice were injected i.p. with 200 μl of either with saline, phospholipid (200 μg/mouse), LPS (Escherichia coli O55:B5, 20 μg/mouse) or a combination of LPS and the phospholipid. After 2 and 4 hrs blood was taken retroorbitaly and placed into Eppendorf tubes containing EDTA. After centrifugation of cells, plasma was collected and analyzed by ELISA for murine KC.

[1] = system: Human ECs (HUVECs and HUVECtert); assay: Cell survival test, serum deprivation; type: cell-based; settings: M199 without serum, 24 to 49 hrs, FIG. 6-8
Procedure: Human ECs (HUVECs and HUVECtert) were cultured Nunclon™ Delta surface flasks (Bartelt; Graz, Austria) in the medium M199 (Gibco) supplemented with 20% fetal calf serum (FCS, Gibco; Carlsbad, Calif., USA), penicillin-streptomycin-amphotericin B (PSF, Lonza; Basel, Switzerland), glutamine (Lonza) and ECGS-heparin (PromoCell; Heidelberg, Germany) in the 95% humidified atmosphere with 5% CO2 at 37° C. For stimulation of cells, they were seeded in the same medium in 96-well Nunclon™ Delta plates (Bartelt). On the day 2, the full medium was exchanged to M199 medium without serum but containing lipids (100 μl per well). In experiments on cell survival against hydrogen peroxide, camptothecin or doxorubicin, the full medium was exchanged to M199 containing 7% FCS and OxPAPC at 40 μg/ml or 50 μg/ml added as a two-fold concentrated solution (50 μl per well). After 20 to 30 min preincubation, toxic agents were added also as two-fold concentrated solutions in M199/7% FCS (50 μl per well). After 16 to 72 hrs of cell incubation at 37° C. and 5% CO2 in 95% humidity, either a nuclei counting of the remained cells or an XTT assay were performed. For the nuclei counting, the medium containing dead cells was aspirated and a Hoechst 33342 solution at the concentration of 1 μg/ml in PBS containing Ca^2+ and Mg^2+ (50 μl per well) was added. After at least 20 min incubation of cells at 37° C. in the cell culture incubator, the stained nuclei were counted using the EnSight plate reader (Perkin-Elmer; Waltham, Mass., USA). An XTT assay with the incubation time of 2 hrs was performed as described (Oskolkova, Godschachner and Bochkov, Inflammation 2017; 40(2): 530-536).
OxPLs protect endothelial cells (ECs) against serum deprivation. ECs were seeded in full M199 medium containing 20% serum. On the day 2, the medium was exchanged to M199 without serum and containing phospholipids at increasing concentrations. After 48 hrs, nuclei of remaining cells were stained by Hoechst and counted. Cells treated with 20% FCS serve as positive and with PBS as negative controls, respectively.
ECs were treated as described in Example 13. After 24 hrs, nuclei of remaining cells were stained by Hoechst 33342 and counted. Cells treated with OxPAPC and 20% FCS serve as positive and with PBS as negative controls, respectively.
ECs were treated with increasing concentrations of OxAA as described in Example 13. After 49 hrs, nuclei of remaining cells were stained by Hoechst 33342 and counted. Cells treated with 20% FCS or with 20 μM OxPAPC serve as positive and with PBS as negative controls, respectively.

[2] = system: human pulmonary artery endothelial monolayers; assay: Endothelial monolayer permeability, transendothelial electrical resistance (TER); type: cell-based; settings: for endothelial barrier-protective effect compared with free iloprost (TER): 0.5 μM, post-treatment 15 min or 5 hrs after LPS 200 ng/ml, monitored over 20 hours, FIG. 4
Procedure: The cellular barrier properties were analyzed by measurements of transendothelial electrical resistance (TER) across confluent human pulmonary artery endothelial monolayers using an electrical cell-substrate impedance sensing system (Applied Biophysics, USA) as previously described (Birukova A A et al., Am. J. Physiol. Lung Cell. Mol. Physiol. 2006, 290(3):L540-548; Birukova A A et al. FASEB J. 2004, 18(15):1879-1890).

LPS-induced lung injury = LPS-induced lung injury and vascular barrier dysfunction in mice (BAL, TNFα, optical imaging); type: in vivo; settings: 10 μg/kg i.v. concurrently and 5 hrs after LPS i.t., day 1 and day 3, FIG. 5
Procedure: Eight-week old C57B1 mice were purchased from Jackson Laboratories (Bar Harbor, USA). Animals were handled according to the National Institutes of Health Guide for the Care and Use of Laboratory Animals. Bacterial lipopolysaccharide (LPS, 0.63 mg/kg body wt; Escherichia coli O55:B5) or sterile water was injected intratracheally in a small volume (20-30 μl) using a 20-gauge catheter (Exelint International, USA). Iloprost (10 μg/kg), ILO-PC (10 μg/kg) or sterile saline solution was administrated concurrently and 5 hrs after LPS instillation by intravenous injection in the external jugular vein. Animals were sacrificed at day-1 or day-3 by exsanguination under anesthesia. BAL was performed using 1 ml of sterile Hanks balanced salt buffer and measurements of cell count and protein concentration were conducted as previously described (Fu P et al., Eur. Respir. J. 2009, 33:612-624). […]
In vivo optical imaging: Mice were injected with 100 μl of 2 nmol Angiosense 680 EX (a vascular fluorescent blood pool imaging agent purchased from PerkinElmer, USA), intravenously via tail vein. Fluorescence optical imaging was performed in the Integrated Small Animal Imaging Research Resource (iSAIRR) at the University of Chicago using Xenogen IVIS 200 Spectrum (Caliper Life Sciences, USA). […]

What does the source list for `CCCCCCCCCCCCCCCCOCC(COP(=O)(O)OCC[N+](C)(C)C)NC(=O)CCC/C=C\C[C@H]1C(=O)C[C@@H](O)[C@@H]1/C=C/[C@@H](O)CCCCC` (stereo partly shown) [KFU-PGE2, 1-O-Hexadecyl-2-deoxy-2-(prostaglandin E2)amino-sn-glycero-3-phosphocholine]?
induction of inflammatory chemokine KC in plasma (LPS-induced inflammation in vivo) (LPS-induced chemokine KC): inhibits induction of inflammatory chemokine KC; protection of ECs against serum deprivation (nuclei counting, Hoechst 33342) [1]: protective effects; endothelial barrier protection/enhancement (TER) ([2]; cultured endothelial cells, two concentrations, FIG. 3): protects endothelial cell barrier

Which “protection of ECs against serum deprivation (nuclei counting, Hoechst 33342)” value (“protection of ECs” for short) [1] does the source give for `CCCCCCCCCCCCCCCCOCC(COP(=O)(O)OCC[N+](C)(C)C)NC(=O)CCC/C=C\C[C@@H]1[C@@H](/C=C/[C@@H](O)CCCCC)[C@H](O)C[C@@H]1O` (stereo partly drawn) [KFU-PGF2α, 1-O-Hexadecyl-2-deoxy-2-(prostaglandin F2α)amino-sn-glycero-3-phosphocholine] here?
Its value is “protective effects”.

Which “protection of ECs” value ([1]; listed as iPGA2-NH-PC) does the source give for `CCCCCCCCCCCCCCCCOCC(COP(=O)(O)OCC[N+](C)(C)C)NC(=O)CCC/C=C\C[C@@H]1C(=O)C=C[C@@H]1/C=C/[C@@H](O)CCCCC` (stereo partly shown) [KFU-iPGA2, 1-O-Hexadecyl-2-deoxy-2-(8-iso-prostaglandin A2)amino-sn-glycero-3-phosphocholine] here?
Its value is “protective effects; also recorded: protect ECs against serum deprivation”.

With `CC#CCC(C)[C@H](O)/C=C/[C@@H]1C2C/C(=C/CCCC(=O)NC(COCCCCCCCCCCCCCCCC)COP(=O)(O)OCC[N+](C)(C)C)CC2C[C@H]1O` (stereo partly shown) [KFU-iloprost, 1-O-Hexadecyl-2-deoxy-2-(iloprost)amino-sn-glycero-3-phosphocholine] as the molecule, how does the “protection from LPS-induced lung injury, barrier dysfunction and edema compared with free iloprost” value (LPS-induced lung injury) read?
The value was “better protection from edema in vivo as compared to free molecule”.

And the “protection from LPS-induced lung injury, barrier dysfunction and edema compared with free iloprost” value (LPS-induced lung injury; listed as KFU-ILO)?
The value was “better protective response on LPS-induced lung injury and barrier dysfunction compared to a free molecule”.

What about the “endothelial barrier-protective effect compared with free iloprost (TER)” value [2] of the same molecule?
Its value is “stronger endothelial barrier-protective effect than free Iloprost”.

And the “endothelial barrier-protective effect compared with free iloprost (TER)” value ([2]; listed as KFU-conjugated iloprost)?
Its value is “stronger and more prolonged barrier-protective activity as compared to free iloprost”.

With `CCCCC[C@H](O)/C=C/[C@H]1C=CC(=O)[C@H]1C/C=C\CCCC(=O)O` [iPGA2, 8-iso-prostaglandin A2, reference compound] as the molecule, how does the “protection of ECs” value [1] read?
The value was “not active; also recorded: not protective”.
